Data as given in US8435980B2 (AbbVie Inc., priority 2009, dated 2013).

target: T1, Cdc7 (BEV coexpressed huCDC7/DBF4) (Homo sapiens, UniProt O00311); experiment: Cdc7 enzyme inhibition assay ([33P]ATP, biotinylated peptide substrate, FlashPlate); assay type: biochemical; settings: Table 3; enzyme inhibition data (Ki)
T1 construct: made in house; host or cells: BEV (baculovirus expression vector) co-expression; insect cells are implied but no cell line is named
Description: Cdc7 (BEV coexpressed huCDC7/DBF4) is prepared internally. Cdc7 assays are conducted as follows with final concentrations as listed. […] Reactions are quenched after 1 hr by the addition of 90 μL stop buffer (50 mM EDTA, 2M NaCl). […] (Ki) for exemplary compounds.

T1 sequence (O00311 whole entry): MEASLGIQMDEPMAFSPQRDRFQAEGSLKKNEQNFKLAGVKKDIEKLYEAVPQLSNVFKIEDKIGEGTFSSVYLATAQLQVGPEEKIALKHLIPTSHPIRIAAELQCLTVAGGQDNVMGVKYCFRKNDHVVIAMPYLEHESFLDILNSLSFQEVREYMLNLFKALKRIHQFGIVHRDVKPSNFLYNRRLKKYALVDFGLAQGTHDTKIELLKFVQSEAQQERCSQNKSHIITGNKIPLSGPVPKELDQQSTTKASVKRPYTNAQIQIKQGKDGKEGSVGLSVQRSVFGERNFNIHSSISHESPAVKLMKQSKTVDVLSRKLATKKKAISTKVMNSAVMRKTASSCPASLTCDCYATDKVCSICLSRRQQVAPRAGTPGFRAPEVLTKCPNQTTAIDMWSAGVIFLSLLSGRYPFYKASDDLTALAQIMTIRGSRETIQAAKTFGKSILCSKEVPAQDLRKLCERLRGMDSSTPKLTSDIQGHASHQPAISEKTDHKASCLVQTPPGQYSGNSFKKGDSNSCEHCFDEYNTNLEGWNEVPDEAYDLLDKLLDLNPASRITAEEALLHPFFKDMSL
T1 sequence (Q9UBU7 whole entry partner): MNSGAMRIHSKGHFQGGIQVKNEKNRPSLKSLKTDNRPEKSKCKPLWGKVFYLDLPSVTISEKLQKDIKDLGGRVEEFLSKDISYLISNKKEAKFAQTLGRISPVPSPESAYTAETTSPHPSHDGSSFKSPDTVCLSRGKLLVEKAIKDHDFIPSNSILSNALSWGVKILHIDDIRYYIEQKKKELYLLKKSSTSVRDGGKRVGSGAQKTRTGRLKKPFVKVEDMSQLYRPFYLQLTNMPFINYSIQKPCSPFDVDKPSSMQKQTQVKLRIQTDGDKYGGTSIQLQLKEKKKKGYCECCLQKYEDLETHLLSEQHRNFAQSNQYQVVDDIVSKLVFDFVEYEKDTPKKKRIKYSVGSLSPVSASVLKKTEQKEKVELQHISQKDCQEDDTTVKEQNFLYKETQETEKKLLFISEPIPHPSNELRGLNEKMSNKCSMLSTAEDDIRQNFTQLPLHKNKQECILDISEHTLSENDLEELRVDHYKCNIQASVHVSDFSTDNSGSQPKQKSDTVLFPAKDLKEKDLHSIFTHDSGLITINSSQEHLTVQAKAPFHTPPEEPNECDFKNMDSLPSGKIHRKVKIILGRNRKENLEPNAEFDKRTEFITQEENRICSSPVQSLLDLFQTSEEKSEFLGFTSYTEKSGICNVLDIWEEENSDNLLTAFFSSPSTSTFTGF

Compared with O=C(C1CC1)N1CCCC(CN(C(=O)C2CC2)c2cc(-c3c[nH]c4ncccc34)cc(Cl)n2)C1 (stereo not shown) [Example 317, N-[6-chloro-4-(1H-pyrrolo[2,3-b]pyridin-3-yl)pyridin-2-yl]-N-{[1-(cyclopropylcarbonyl)piperidin-3-yl]methyl}cyclopropanecarboxamide], Clc1cc(-c2c[nH]c3ncccc23)cc(NC2CCCN(CC3CC3)C2)n1 (stereo not shown) [Example 319, 6-chloro-N-[1-(cyclopropylmethyl)piperidin-3-yl]-4-(1H-pyrrolo[2,3-b]pyridin-3-yl)pyridin-2-amine] is lower in Ki: 10 to 100 nM for the first, less than 10 nM for the second.

First: Clc1cc(-c2c[nH]c3ncccc23)cc(NCC2CCCN(CC3CC3)C2)n1 (stereo not shown) [Example 318, 6-chloro-N-{[1-(cyclopropylmethyl)piperidin-3-yl]methyl}-4-(1H-pyrrolo[2,3-b]pyridin-3-yl)pyridin-2-amine]
Second: Clc1cc(-c2c[nH]c3ncccc23)cc(NC2CCCC(N3CCCC3)C2)n1 (stereo not shown) [Example 323, 6-chloro-N-[3-(pyrrolidin-1-yl)cyclohexyl]-4-(1H-pyrrolo[2,3-b]pyridin-3-yl)pyridin-2-amine]
The Ki of the first is higher: 10 to 100 nM for the first, less than 10 nM for the second.

First: O=C(Cc1cc2ccccc2[nH]1)Nc1cc(-c2c[nH]c3ncccc23)cc(Cl)n1 [Example 320, N-[6-chloro-4-(1H-pyrrolo[2,3-b]pyridin-3-yl)pyridin-2-yl]-2-(1H-indol-2-yl)acetamide]
Second: O=S(=O)(Nc1cc(-c2c[nH]c3ncccc23)cc(Cl)n1)c1ccc(F)cc1 [Example 331, N-[6-chloro-4-(1H-pyrrolo[2,3-b]pyridin-3-yl)pyridin-2-yl]-4-fluorobenzenesulfonamide]
The Ki of the first is higher: 10 to 100 nM for the first, less than 10 nM for the second. The second binds more tightly here.

Clc1cc(-c2c[nH]c3ncccc23)cc(N[C@H]2CC[C@H](NC3CCCC3)CC2)n1 [Example 321, trans-N-[6-chloro-4-(1H-pyrrolo[2,3-b]pyridin-3-yl)pyridin-2-yl]-N′-cyclopentylcyclohexane-1,4-diamine] and O=C(N[C@H]1CC[C@H](Nc2cc(-c3c[nH]c4ncccc34)cc(Cl)n2)CC1)C1CCCC1 [Example 341, N-(trans-4-{[6-chloro-4-(1H-pyrrolo[2,3-b]pyridin-3-yl)pyridin-2-yl]amino}cyclohexyl)cyclopentanecarboxamide] cannot be ordered by Ki: less than 10 nM for the first, less than 10 nM for the second.

CC(C)CN[C@H]1CC[C@H](Nc2cc(-c3c[nH]c4ncccc34)cc(Cl)n2)CC1 [Example 322, trans-N-[6-chloro-4-(1H-pyrrolo[2,3-b]pyridin-3-yl)pyridin-2-yl]-N′-(2-methylpropyl)cyclohexane-1,4-diamine] and CNCC(=O)N[C@H]1CC[C@H](Nc2cc(-c3c[nH]c4ncccc34)cc(Cl)n2)CC1 [Example 325, N-(trans-4-{[6-chloro-4-(1H-pyrrolo[2,3-b]pyridin-3-yl)pyridin-2-yl]amino}cyclohexyl)-N~2~-methylglycinamide] cannot be ordered by Ki: less than 10 nM for the first, less than 10 nM for the second.

Clc1cc(-c2c[nH]c3ncccc23)cc(NC2CCCC(N3CCCCC3)C2)n1 (stereo not shown) [Example 324, 6-chloro-N-[3-(piperidin-1-yl)cyclohexyl]-4-(1H-pyrrolo[2,3-b]pyridin-3-yl)pyridin-2-amine] and O=C(CN1CCCCCC1)NC1CCCC(Nc2cc(-c3c[nH]c4ncccc34)cc(Cl)n2)C1 (stereo not shown) [Example 340, 2-(azepan-1-yl)-N-(3-{[6-chloro-4-(1H-pyrrolo[2,3-b]pyridin-3-yl)pyridin-2-yl]amino}cyclohexyl)acetamide] cannot be ordered by Ki: less than 10 nM for the first, less than 10 nM for the second.

CN[C@@H](C)C(=O)NC1CCCC(Nc2cc(-c3c[nH]c4ncccc34)cc(Cl)n2)C1 (stereo partly shown) [Example 327, N-(3-{[6-chloro-4-(1H-pyrrolo[2,3-b]pyridin-3-yl)pyridin-2-yl]amino}cyclohexyl)-N~2~-methylalaninamide] and CN[C@@H](C(=O)N[C@H]1CCC[C@H](Nc2cc(-c3c[nH]c4ncccc34)cc(Cl)n2)C1)c1ccccc1 [Example 328, (2R)—N-[(1S,3S)-3-{[6-chloro-4-(1H-pyrrolo[2,3-b]pyridin-3-yl)pyridin-2-yl]amino}cyclohexyl]-2-(methylamino)-2-phenylethanamide] cannot be ordered by Ki: less than 10 nM for the first, less than 10 nM for the second.

CN[C@@H](C(=O)N[C@@H]1CCC[C@@H](Nc2cc(-c3c[nH]c4ncccc34)cc(Cl)n2)C1)c1ccccc1 [Example 329, (2R)—N-[(1R,3R)-3-{[6-chloro-4-(1H-pyrrolo[2,3-b]pyridin-3-yl)pyridin-2-yl]amino}cyclohexyl]-2-(methylamino)-2-phenylethanamide] and O=C(NC1CCCC(Nc2cc(-c3c[nH]c4ncccc34)cc(Cl)n2)C1)C1CCNC1 (stereo not shown) [Example 343, N-(3-{[6-chloro-4-(1H-pyrrolo[2,3-b]pyridin-3-yl)pyridin-2-yl]amino}cyclohexyl)pyrrolidine-3-carboxamide] cannot be ordered by Ki: less than 10 nM for the first, less than 10 nM for the second.

First: O=S(=O)(N[C@@H]1CCCC[C@H]1Nc1cc(-c2c[nH]c3ncccc23)cc(Cl)n1)C1CC1 [Example 330, N-[(1R,2R)-2-{[6-chloro-4-(1H-pyrrolo[2,3-b]pyridin-3-yl)pyridin-2-yl]amino}cyclohexyl]cyclopropanesulfonamide]
Second: O=S(=O)(Nc1cc(-c2c[nH]c3ncccc23)cc(Cl)n1)C1CC1 [Example 332, N-[6-chloro-4-(1H-pyrrolo[2,3-b]pyridin-3-yl)pyridin-2-yl]cyclopropanesulfonamide]
The Ki of the first is higher: 10 to 100 nM for the first, less than 10 nM for the second.

CCN(CC)CC(C)(C)CNc1cc(-c2c[nH]c3ncccc23)cc(Cl)n1 [Example 333, N′-[6-chloro-4-(1H-pyrrolo[2,3-b]pyridin-3-yl)pyridin-2-yl]-N,N-diethyl-2,2-dimethylpropane-1,3-diamine] and CCN(CC)[C@H]1CC[C@H](Nc2cc(-c3c[nH]c4ncccc34)cc(Cl)n2)CC1 [Example 334, trans-N′-[6-chloro-4-(1H-pyrrolo[2,3-b]pyridin-3-yl)pyridin-2-yl]-N,N-diethylcyclohexane-1,4-diamine] cannot be ordered by Ki: less than 10 nM for the first, less than 10 nM for the second.

O=C1CC[C@H](C(=O)N[C@H]2CC[C@H](Nc3cc(-c4c[nH]c5ncccc45)cc(Cl)n3)CC2)N1 [Example 335, N-(trans-4-{[6-chloro-4-(1H-pyrrolo[2,3-b]pyridin-3-yl)pyridin-2-yl]amino}cyclohexyl)-5-oxo-D-prolinamide] and O=C1CC[C@@H](C(=O)N[C@H]2CC[C@H](Nc3cc(-c4c[nH]c5ncccc45)cc(Cl)n3)CC2)N1 [Example 338, N-(trans-4-{[6-chloro-4-(1H-pyrrolo[2,3-b]pyridin-3-yl)pyridin-2-yl]amino}cyclohexyl)-5-oxo-L-prolinamide] cannot be ordered by Ki: less than 10 nM for the first, less than 10 nM for the second.

CN1CCCCC1C(=O)NC1CCCC(Nc2cc(-c3c[nH]c4ncccc34)cc(Cl)n2)C1 (stereo not shown) [Example 339, N-(3-{[6-chloro-4-(1H-pyrrolo[2,3-b]pyridin-3-yl)pyridin-2-yl]amino}cyclohexyl)-1-methylpiperidine-2-carboxamide] and O=C(NC1CCCC(Nc2cc(-c3c[nH]c4ncccc34)cc(Cl)n2)C1)C1CCCNC1 (stereo not shown) [Example 345, N-(3-{[6-chloro-4-(1H-pyrrolo[2,3-b]pyridin-3-yl)pyridin-2-yl]amino}cyclohexyl)piperidine-3-carboxamide] cannot be ordered by Ki: less than 10 nM for the first, less than 10 nM for the second.

O=C(NC1CCCC(Nc2cc(-c3c[nH]c4ncccc34)cc(Cl)n2)C1)C1CCNCC1 (stereo not shown) [Example 344, N-(3-{[6-chloro-4-(1H-pyrrolo[2,3-b]pyridin-3-yl)pyridin-2-yl]amino}cyclohexyl)piperidine-4-carboxamide] showed a Ki of less than 10 nM.
